Assays:
[1] = molecular target: CFTR fragments containing MSD2 (Homo sapiens, UniProt P13569); assay: CFTR fragment stability analysis (WB) in transfected HEK293 cells; type: cell-based; conditions: HEK293, 24 h incubation, 10 nM
Description: (§1) CFTR correctors are expected to stabilize the expression of the protein domains with which they interact, resulting in an increased amount of protein.[35]−[37] To determinate the portion of CFTR with which ARN23765 interacts, constructs coding for CFTR fragments of different lengths (Figure 3A) were transfected in HEK293 cells, and the effect of 24 h incubation with ARN23765 on the expression of the truncated proteins was analyzed with WB. […] To better study ARN23765’s stabilization of MSD1 vs MSD2, we analyzed their expression in transfected HEK-293 cells over 6 h of cycloheximide treatment.
(§2) Constructs coding for MSD1 (residues 1–380), A52-tagged MSD2 (residues 837–1196) and MSD2-NBD2 (residues 850–1480) were transfected in HEK293 cells using JetPEI reagent (101000053, Polyplus Technology). After 18 h transfection, cells were treated for 24 h with either 0.2% DMSO, VX-661 (3 μM), ARN23765 (10 nM) or corr-4a (10 μM). Cell lysates were analyzed by WB, as described in the dedicated paragraph.

[2] = molecular target: CFTR fragments containing MSD1 (Homo sapiens, UniProt P13569); assay: as above; type: cell-based; conditions: HEK293, 24 h incubation, 10 nM
Description: as §1, §2

F508del-CFTR = molecular target: T1, F508del-CFTR (Homo sapiens, UniProt P13569, DEL508-508); assay: Live-cell photoaffinity labeling, streptavidin pull-down and CFTR Western blot; type: binding; conditions: F508del-CFTR CFBE41o- cells, 25-fold excess (25 μM) competitor 30 min before probe (1 μM)
T1 construct: expressed in transfected cells
Description: (§3) Wt-CFTR or F508del-CFTR CFBE41o- cells were plated at 2–2.5 × 10^6 cells/plate in 6 cm diameter dishes. The day after, sodium butyrate (5–2.5 mM) was added for 24 h; next, the medium was exchanged with fresh one supplemented with DMSO (0.25%) (276855, Sigma-Aldrich) or probe (1 μM). For competition experiments, a 25-fold excess of ARN23765 (25 μM) was added 30 min before probe’s addition. For the analysis of “corrected” F508del-CFTR, F508del-CFTR CFBE41o- cells were kept at 27 °C for 24 h before adding the probes. Probes were incubated with cells for 2 h, then the medium was removed, and plates were washed twice with phosphate buffer saline (PBS). Cells were placed on ice and irradiated for 5 min at a wavelength of 365 nm using a 100-W UV-lamp (95–0127–02 model B100-AP, Analytik Jena). Cells were harvested with trypsin (T4299, Sigma-Aldrich), washed with PBS (D8537, Sigma-Aldrich), and pellets were stored at −80 °C until used, centrifuged at 300 × g and washed twice with PBS (D8537, Sigma-Aldrich). Pellets from in-cell photoaffinity labeling with alkyne-probes (PAP_1 and PAP_2) were lysed in PBS plus protease inhibitor cocktail (78429, Thermo Scientific) by sonication. The suspension was centrifuged at 800 × g for 20 min at 4 °C to discard nuclei and cell debris. The total extracted proteins were quantified with the bicinchoninic acid (BCA) protein assay (23225, Thermo Scientific) and subjected to CuAAC before proceeding with pull-down. Pellets from in-cell photoaffinity labeling with desthio-biotinylated (DS-biot) probes (PAP_1 DS-biot, PAP_2 DS-biot, PAP_N1 DS-biot, PAP_N2 DS-biot) were lysed with a modified RIPA buffer [50 mM tris-HCl pH 8, 150 mM NaCl, 0.5% Triton-X100, 0.2% SDS, 1 mM ethylenediaminetetraacetic acid (EDTA)] supplemented with protease inhibitor cocktail and centrifuged at 10.000× g for 10 min. The protein content in the supernatant was quantified by BCA protein assay. Protein lysate (200 μg) was diluted to 800 μL and the Triton-X100 percentage was reduced to 0.2% before proceeding to pull-down.
(§4) High capacity streptavidin agarose (20359, Thermo Scientific) (25 μL) was added to PAP-labeled cell extracts for 1 h at room temperature under gentle rotation. The streptavidin beads were collected by centrifugation and washed four times with lysis buffer. Resin-bound proteins were eluted with 45 μL of 5 mM biotin (B4501, Sigma-Aldrich) for 30 min at room temperature and analyzed with Western blot for CFTR expression. Input samples (4 and 8 μg for wt-CFTR and F508del-CFTR CFBE41o-, respectively) were collected immediately before incubation with streptavidin resin. Input and pulled-down samples were analyzed with WB as described in the supplementary methods.

wt-CFTR = molecular target: T2, wt-CFTR (Homo sapiens, UniProt P13569); assay: as above; type: binding; conditions: wt-CFTR CFBE41o- cells, 25-fold excess (25 μM) competitor 30 min before probe (1 μM)
T2 construct: expressed in transfected cells
Description: as §3
Copper-catalyzed azide–alkyne cycloaddition (CuAAC) was performed according to a previously described protocol.[62] Briefly, to the protein preparation (250 μL at 1 mg/mL protein concentration) the following reagents were added at the indicated final concentrations: 100 μM 5/6-TAMRA-azide-desthiobiotin (CLK-1110–5, Jena Bioscience), 1.0 mM tris-(2-carbossietil)phosphine (TCEP, C4706, Sigma-Aldrich), 100 μM tris-[(1-benzyl-1H-1,2,3-triazol-4-yl)methyl]amine (TBTA, 678937, Sigma-Aldrich), 1.0 mM CuSO4.5H2O (Sigma), and 0.8% sodium dodecyl sulfate (SDS). TBTA was first dissolved in DMSO at 83.5 mM and then diluted with four volumes of tert-butanol. The reaction was mixed by vortexing and incubated for 1 h at 25 °C. After the reaction time, proteins were precipitated with 5 volumes of cold acetone overnight at −20 °C. Samples were centrifuged for 20 min at 20.000× g, and the pellets were washed with methanol, air-dried, and finally resuspended with 600 μL of 1% SDS. SDS concentration was then diluted to 0.2% with PBS before proceeding to pull-down.
as §4

CFTR fragments containing MSD1, sequence (P13569 1-380 limits assumed): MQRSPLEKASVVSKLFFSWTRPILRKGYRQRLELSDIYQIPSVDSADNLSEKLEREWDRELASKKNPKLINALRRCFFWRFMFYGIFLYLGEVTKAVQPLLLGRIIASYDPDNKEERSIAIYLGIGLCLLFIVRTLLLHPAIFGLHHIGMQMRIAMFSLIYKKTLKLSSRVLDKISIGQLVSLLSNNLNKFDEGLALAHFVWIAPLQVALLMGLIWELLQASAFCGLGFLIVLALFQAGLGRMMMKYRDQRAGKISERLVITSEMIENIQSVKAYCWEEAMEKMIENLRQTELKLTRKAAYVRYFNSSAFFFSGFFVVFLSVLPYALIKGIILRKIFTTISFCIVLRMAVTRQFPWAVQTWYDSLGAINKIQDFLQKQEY
T2 sequence (P13569 whole entry): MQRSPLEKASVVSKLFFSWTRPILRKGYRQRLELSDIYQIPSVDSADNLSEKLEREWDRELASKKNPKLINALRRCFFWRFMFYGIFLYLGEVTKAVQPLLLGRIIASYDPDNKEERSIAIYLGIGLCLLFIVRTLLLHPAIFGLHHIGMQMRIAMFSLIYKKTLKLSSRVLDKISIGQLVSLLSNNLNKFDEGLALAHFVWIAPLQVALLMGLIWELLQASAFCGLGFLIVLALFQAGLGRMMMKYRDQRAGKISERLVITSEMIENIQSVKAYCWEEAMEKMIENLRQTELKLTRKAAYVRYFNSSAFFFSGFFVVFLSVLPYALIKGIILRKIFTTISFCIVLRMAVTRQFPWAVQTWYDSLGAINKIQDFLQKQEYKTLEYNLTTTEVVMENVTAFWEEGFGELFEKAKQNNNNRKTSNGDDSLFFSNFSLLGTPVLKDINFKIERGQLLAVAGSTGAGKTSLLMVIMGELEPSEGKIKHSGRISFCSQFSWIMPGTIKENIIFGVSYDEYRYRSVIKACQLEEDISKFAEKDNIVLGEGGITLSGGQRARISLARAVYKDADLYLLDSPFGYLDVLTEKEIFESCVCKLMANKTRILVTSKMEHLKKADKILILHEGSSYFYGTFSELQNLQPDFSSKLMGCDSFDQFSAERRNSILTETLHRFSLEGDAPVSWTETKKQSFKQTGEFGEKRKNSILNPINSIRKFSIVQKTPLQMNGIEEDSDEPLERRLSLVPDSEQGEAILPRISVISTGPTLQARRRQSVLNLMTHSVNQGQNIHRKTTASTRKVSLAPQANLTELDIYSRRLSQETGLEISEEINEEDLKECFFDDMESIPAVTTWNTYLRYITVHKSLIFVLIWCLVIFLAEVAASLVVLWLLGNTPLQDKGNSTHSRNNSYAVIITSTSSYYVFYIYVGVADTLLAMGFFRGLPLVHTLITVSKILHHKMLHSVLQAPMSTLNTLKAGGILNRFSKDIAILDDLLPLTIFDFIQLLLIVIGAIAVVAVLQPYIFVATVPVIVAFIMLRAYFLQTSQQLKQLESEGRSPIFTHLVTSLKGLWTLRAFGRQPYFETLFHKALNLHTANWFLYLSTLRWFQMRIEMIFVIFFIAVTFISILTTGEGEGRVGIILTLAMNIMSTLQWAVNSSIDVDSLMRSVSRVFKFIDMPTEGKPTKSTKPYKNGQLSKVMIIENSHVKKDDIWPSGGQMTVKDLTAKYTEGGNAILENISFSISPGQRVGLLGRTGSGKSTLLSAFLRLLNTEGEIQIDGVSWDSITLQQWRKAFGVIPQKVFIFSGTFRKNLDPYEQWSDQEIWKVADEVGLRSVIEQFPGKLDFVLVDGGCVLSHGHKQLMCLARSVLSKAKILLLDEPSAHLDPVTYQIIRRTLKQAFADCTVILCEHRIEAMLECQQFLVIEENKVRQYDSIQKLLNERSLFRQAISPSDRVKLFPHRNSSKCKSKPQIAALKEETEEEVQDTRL
CFTR fragments containing MSD2, sequence (P13569 850-1196 limits assumed): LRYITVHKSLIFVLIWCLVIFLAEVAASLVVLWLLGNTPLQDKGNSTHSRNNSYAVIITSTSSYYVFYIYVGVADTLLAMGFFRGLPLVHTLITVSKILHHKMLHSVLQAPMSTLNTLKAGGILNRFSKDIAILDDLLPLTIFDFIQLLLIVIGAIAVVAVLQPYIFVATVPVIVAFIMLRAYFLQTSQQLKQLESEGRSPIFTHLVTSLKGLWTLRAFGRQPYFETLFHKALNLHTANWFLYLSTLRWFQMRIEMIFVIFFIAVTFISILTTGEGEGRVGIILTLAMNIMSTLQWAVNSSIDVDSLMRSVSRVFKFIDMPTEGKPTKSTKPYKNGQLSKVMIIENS
T1 sequence (P13569 with tags, fused parts or gaps DEL508-508): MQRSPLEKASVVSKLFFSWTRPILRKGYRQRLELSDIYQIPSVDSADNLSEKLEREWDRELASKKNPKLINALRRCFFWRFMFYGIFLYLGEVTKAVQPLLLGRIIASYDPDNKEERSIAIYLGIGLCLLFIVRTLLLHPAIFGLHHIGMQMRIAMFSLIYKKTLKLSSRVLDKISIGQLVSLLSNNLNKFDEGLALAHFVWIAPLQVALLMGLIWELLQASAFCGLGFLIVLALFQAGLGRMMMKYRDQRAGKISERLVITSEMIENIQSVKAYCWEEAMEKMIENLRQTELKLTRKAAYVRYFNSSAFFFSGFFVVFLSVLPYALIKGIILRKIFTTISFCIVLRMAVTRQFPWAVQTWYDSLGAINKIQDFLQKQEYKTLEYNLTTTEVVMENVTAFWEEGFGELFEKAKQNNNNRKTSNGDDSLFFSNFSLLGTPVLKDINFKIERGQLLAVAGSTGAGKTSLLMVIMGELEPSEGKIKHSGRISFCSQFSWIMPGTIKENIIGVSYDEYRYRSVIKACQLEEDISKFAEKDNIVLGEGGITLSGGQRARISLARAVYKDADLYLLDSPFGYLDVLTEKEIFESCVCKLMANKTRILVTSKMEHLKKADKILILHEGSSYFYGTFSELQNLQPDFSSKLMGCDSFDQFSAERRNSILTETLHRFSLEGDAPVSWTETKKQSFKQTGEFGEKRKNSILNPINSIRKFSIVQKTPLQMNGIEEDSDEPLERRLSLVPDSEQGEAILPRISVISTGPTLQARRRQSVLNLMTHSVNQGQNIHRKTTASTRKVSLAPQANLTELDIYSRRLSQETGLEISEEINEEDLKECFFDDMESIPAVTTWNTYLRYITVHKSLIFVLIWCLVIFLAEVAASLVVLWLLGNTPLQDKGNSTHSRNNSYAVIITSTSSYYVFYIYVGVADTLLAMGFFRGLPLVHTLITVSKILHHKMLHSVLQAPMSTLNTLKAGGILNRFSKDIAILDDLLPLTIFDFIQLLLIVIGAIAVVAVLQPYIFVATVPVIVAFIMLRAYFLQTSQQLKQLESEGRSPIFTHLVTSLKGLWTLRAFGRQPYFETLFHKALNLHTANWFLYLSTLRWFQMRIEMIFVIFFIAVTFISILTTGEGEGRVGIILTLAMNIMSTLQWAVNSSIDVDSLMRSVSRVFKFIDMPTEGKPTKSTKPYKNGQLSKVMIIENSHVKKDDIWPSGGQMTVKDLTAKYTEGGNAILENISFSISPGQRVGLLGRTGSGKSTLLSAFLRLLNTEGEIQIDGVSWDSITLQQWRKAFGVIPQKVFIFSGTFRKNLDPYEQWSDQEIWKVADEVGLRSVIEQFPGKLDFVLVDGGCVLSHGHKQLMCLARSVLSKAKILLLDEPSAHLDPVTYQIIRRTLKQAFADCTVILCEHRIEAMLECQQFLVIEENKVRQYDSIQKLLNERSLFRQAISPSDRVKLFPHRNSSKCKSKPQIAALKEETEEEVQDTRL

- Expression of CFTR fragments containing MSD2 (WB) [1]: no difference in expression
- Correction of CFTR with R domain deleted (delR construct, WB) [2]: still corrected
- Expression of CFTR fragments containing MSD1 (WB) [2]: increased expression
Compound: CN(C(=O)c1cccc(-n2nc(C(F)(F)F)c3c2[C@@H](Oc2ccc(C(=O)O)cc2)CCC3)c1)c1ccc2c(c1)OC(F)(F)O2 [ARN23765]
- Competition: CFTR recovered in pull-down by PAP_1 DS-biot or PAP_2 DS-biot after preincubation with competitor (F508del-CFTR): markedly reduced amount of the recovered protein
- Competition: CFTR recovered in pull-down by PAP_1 DS-biot or PAP_2 DS-biot after preincubation with competitor (wt-CFTR): markedly reduced amount of the recovered protein
